Measurements published in patent US11419878B2, “Medicine obtained by combining FXR agonist and ARB” (Intercept Pharmaceuticals, Inc., priority 2016, dated 2022).

Key:
[1] = test system: C57Bl/6J mice fed a CDAHFD; assay: Murine NASH model (CDAHFD-fed mice), serum ALT activity; type: in vivo, mouse; conditions: obeticholic acid 10 mg/kg/day and/or losartan 30 mg/kg/day oral, 3 weeks from 6 weeks of diet
Excerpt: According to the NASH/NAFLD Practice Guideline of 2015 (Japan Society of Hepatology, NASH/NAFLD Practice Guideline 2015. Tokyo: Bunkodo; 2015.), the important factors in NASH diagnostic screening are an abdominal ultrasound diagnosis of fatty liver and abnormal ALT (alanine aminotransferase) values. The diagnosis of NASH is confirmed by liver biopsy, with control of obesity/hypertension/lipid abnormalities being one of the basic criteria, and continuing high values for transaminases (aminotransferases) are also significant. […] Aliment Pharmacol Ther. 2013 Jul. 38 (2): 134-43). Based on the above findings, as ALT is considered an important prognostic factor in the progression of NASH, treatment to improve ALT levels is expected to alleviate the pathology of NASH. For this reason, evaluation was conducted using the animal model of reduction of ALT below, and the effects of monotherapy and combined administration of an FXR agonist (obeticholic acid) and an ARB (losartan) were studied.
The same method was used as in working example 7.
Male C57Bl/6J mice (n=50) […]
In order to evaluate serum alanine aminotransferase (ALT) activity, blood samples were taken from mice that had completed the above-mentioned testing, and the serum was separated. Using a pharmaceutical product for in vitro diagnosis, ALT activity in the serum samples was enzymatically measured.

α1(I) procollagen = assay: Rat NASH model, RT-PCR of hepatic α1(I) procollagen mRNA expression; type: in vivo; conditions: OLETF rats, PS 8 weeks, obeticholic acid 30 mg/kg/day and/or losartan 30 mg/kg/day oral
Method: Using the liver sections from the rats in the various groups obtained in working example 1, an immunohistochemical study by immunohistological staining with α-smooth muscle actin (α-SMA) antibody and a quantitative analysis of transforming growth factor-β1 TGF-β1) and collagen (α1(I) procollagen) mRNA expression were conducted. α-SMA is known to be an indicator (marker) of activation of hepatic stellate cells (HSCs) (also known as hepatic star cells). Moreover, activation of hepatic stellate cells (HSC), overproduction of TGF-β1 (a fibrosis-promoting cytokine) accompanying said activation, and overproduction of extracellular matrix components such as collagen are thought to play a central role in the mechanism of progressive hepatic fibrosis in NASH. For this reason, mRNA expression of TGF-β1 and collagen (α1(I) procollagen) can be a fibrosis indicator (marker).
A comparative study was conducted by analyzing TGF-β1 and collagen (α1(I) procollagen) mRNA expression in the livers of the rates of the various groups of working example 1 by means of the quantitative real-time polymerase chain reaction (RT-PCR). Quantitation of the mRNA expression levels by RT-PCR was conducted on a StepOne Plus™ system (manufactured by Applied Biosystems®) using the fluorescent dye SYBR® Green

[2] = test system: human hepatic stellate cells (HHSC); assay: HHSC proliferation inhibition, WST-1 cell proliferation assay; type: cell-based; conditions: AT-II 10^-6M + LPS 10^-5M; ARB 10^-6M, obeticholic acid 5×10^-6M; 24 hours; WST-1 absorbance
Method: The various combined effects of obeticholic acid and three types of ARBs (losartan, valsartan, and candesartan) were confirmed in an in vitro cell system experiment. Specifically, using human hepatic stellate cells (HHSC), which are implicated in the main mechanism of progression of hepatic fibrosis in NASH, the effects of administration of obeticholic acid in combination with the three ARBs of inhibiting HHSC proliferation capacity and the expression of fibrosis markers were evaluated according to the following method. Human hepatic stellate cells (HHSC) (also referred to as human hepatic star cells) Obeticholic acid (obtained from Intercept Pharmaceuticals, Inc. via Sumitomo Dainippon Pharma Co., Ltd.) was used as an FXR agonist, and commercial losartan (potassium salt of losartan; referred to in this working example simply as “losartan”) and valsartan and candesartan ([…] of candesartan; referred to in this working example simply as “candesartan”) were used as ARBs. […] The direct action of inhibiting HIISC proliferation capacity was evaluated by means of a cell proliferation assay using WST-1 reagent. […] AT-II (10^-6M) Positive control group L […]): LPS 10^-5M) Positive control group AL ([…]): (10^-6M)+LPS (10^-5M) Obeticholic acid administration (G3): AT-II (10^-6M)+LPS (10^-5M)+obeticholic acid (5×10^-6M) ARB administration (G4): AT-II (10^-6M)+LPS (10^-5M)+ARB (10^-6M) Obeticholic acid+ARB combined administration (G5): AT-II (10^-6M)+LPS (10^-5M)+obeticholic acid (5×10^-6M)+ARB (10^-6M) 3) After the cells of the above groups (G1, G2A, G2L, G2AL, G3, G4, G5) were cultured for 24 hours, respective WST-1 cell proliferation assays were conducted, and the inhibitory effect of the pharmaceutical agents on cell proliferation was evaluated. The inhibitory effect of valsartan and candesartan on HHSC proliferation was also evaluated according to steps 1)-3) above. […]

| SMILES | improvement in serum ALT activity versus the positive control group [1] | α1(I) procollagen mRNA expression in liver compared to the positive control group (α1(I) procollagen) | promotion of activated HHSC proliferation by AT-II and LPS, compared to positive control group AL (G2AL) [2] |
| --- | --- | --- | --- |
| CC[C@H]1[C@@H](O)[C@@H]2[C@H](CC[C@]3(C)[C@@H]([C@H](C)CCC(=O)O)CC[C@@H]23)[C@@]2(C)CC[C@@H](O)C[C@@H]12 [obeticholic acid, 3α,7α-dihydroxy-6α-ethyl-5β-cholan-24-oic acid] | only an improving trend | moderate decreasing tendency | – |
| CCCCc1nc(Cl)c(CO)n1Cc1ccc(-c2ccccc2-c2nn[nH]n2)cc1 [losartan] | only an improving trend | moderate decreasing tendency | statistically significant inhibition |
